Experiments:
S. aureus Newman [1] = test: Bliss interaction score (quartile over a dose matrix) (fitness difference); higher = more antagonism (negative = synergy)
Outline: (§1)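 The Bliss score subtracts expected fitness, the product of the single-drug fitness values, from observed fitness. Fitness is plate-normalised OD595 at entry into stationary phase, relative to the robust no-drug mean and capped at 1, with single-drug fitness inferred from combinations. Summaries are quartiles over technical, biological and donor/recipient replicates.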

S. pneumoniae D39V [2] = test: as above
Outline: as §1

S. aureus DSM 20231 = test: as above
Outline: as §1

B. subtilis 168 [3] = test: as above
Outline: as §1

S. aureus Newman [4] = test: fitness (endpoint OD595 vs no drug) (fraction); higher = more growth
Outline: (§2)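 Fitness was defined as the optical density at the transition into stationary phase relative to the robust mean of no-drug control wells. Values were capped at 1. Cultures were started at OD595 0.01 in 384-well plates (30 µl, or 55 µl for S. pneumoniae) in TSB, LB Lennox or CY at 37 °C. OD595 was recorded every 30 min over 14 h, with the first reading subtracted as background.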

S. pneumoniae D39V [5] = test: as above
Outline: as §2

B. subtilis 168 [6] = test: as above
Outline: as §2
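For Bliss interaction score (quartile over a dose matrix) in this document: first quartile when negative (synergy) and third quartile when positive (antagonism).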

CNC(C)C1CCC(N)C(OC2C(N)CC(N)C(OC3OCC(C)(O)C(NC)C3O)C2O)O1 (configuration not stated) [Gentamicin] + CN(N=O)C(=O)N[C@@H](C=O)[C@@H](O)[C@H](O)[C@H](O)CO [Streptozotocin]
main component drawn
Conditions	Bliss interaction score
B. subtilis 168 [3]	-0.125
S. aureus DSM 20231	-0.0423
S. aureus Newman [1]	0.0523
S. pneumoniae D39V [2]	0.0654

fitness, S. aureus Newman [4], one replicate, main component drawn
Conditions	first compound 0.375 µg/mL	first compound 0.75 µg/mL	first compound 1.5 µg/mL
partner 0.15 µg/mL	0.851	0.848	0.777
partner 0.3 µg/mL	0.717	0.687	0.706
partner 0.6 µg/mL	0.534	0.585	0.561

fitness, main component drawn
Conditions	partner 0.15 µg/mL	partner 0.3 µg/mL	partner 0.6 µg/mL	partner 1.2 µg/mL	partner 2.4 µg/mL	partner 4.8 µg/mL
B. subtilis 168 [6], first compound 0.0625 µg/mL	0.949	0.952	0.956	–	–	–
B. subtilis 168 [6], first compound 0.25 µg/mL	0.161	0.164	0.12	–	–	–
S. aureus Newman [4], first compound 0.5 µg/mL	0.871	0.801	0.708	–	–	–
S. aureus Newman [4], first compound 1 µg/mL	0.888	0.844	0.724	–	–	–
S. aureus Newman [4], first compound 2 µg/mL	0.898	0.856	0.732	–	–	–
S. pneumoniae D39V [5], first compound 2 µg/mL	–	–	–	0.892	0.949	0.914
S. pneumoniae D39V [5], first compound 4 µg/mL	–	–	–	0.93	0.966	0.949
S. pneumoniae D39V [5], first compound 8 µg/mL	–	–	–	0.942	0.967	0.878

Cn1c2cccc(=O)c-2nc2ccccc21 [Pyocyanin] + CN(C)c1cc(NC(=O)CNC(C)(C)C)c(O)c2c1C[C@H]1C[C@H]3[C@H](N(C)C)C(O)=C(C(N)=O)C(=O)[C@@]3(O)C(O)=C1C2=O [Tigecycline]
Conditions	Bliss interaction score
B. subtilis 168 [3]	-0.04
S. aureus DSM 20231	-0.0925
S. aureus Newman [1]	0.0936
S. pneumoniae D39V [2]	0.0539

fitness
Conditions	first compound 0.325 µg/mL	first compound 0.65 µg/mL	first compound 1.25 µg/mL	first compound 1.3 µg/mL	first compound 2.5 µg/mL	first compound 5 µg/mL
B. subtilis 168 [6], partner 0.039 µg/mL	–	–	0.956	–	0.903	0.786
B. subtilis 168 [6], partner 0.078 µg/mL	–	–	0.953	–	0.876	0.747
B. subtilis 168 [6], partner 0.156 µg/mL	–	–	0.935	–	0.863	0.762
S. aureus Newman [4], partner 0.039 µg/mL	–	–	0.879	–	0.81	0.426
S. aureus Newman [4], partner 0.078 µg/mL	–	–	0.854	–	0.808	0.412
S. aureus Newman [4], partner 0.156 µg/mL	–	–	0.886	–	0.807	0.401
S. pneumoniae D39V [5], partner 0.65 µg/mL	0.965	0.975	–	0.697	–	–
S. pneumoniae D39V [5], partner 1.3 µg/mL	≥ 1	0.966	–	0.708	–	–
S. pneumoniae D39V [5], partner 2.6 µg/mL	0.979	0.928	–	0.668	–	–

fitness, B. subtilis 168 [6], one replicate
Conditions	first compound 1.25 µg/mL	first compound 2.5 µg/mL	first compound 5 µg/mL
partner 0.125 µg/mL	0.964	0.97	0.955
partner 0.25 µg/mL	0.865	0.847	0.882
partner 0.5 µg/mL	0.91	0.867	0.801
